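Cells were grown in 96-well plates and exposed to each compound for 48 hours at five concentrations; endpoints were interpolated linearly between bracketing concentrations, or set to the highest concentration if not reached. GI50 = concentration required for 50% inhibition of growth.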 The source made the active and inactive calls. Cut-off read from the data, not from the text of the source: active = GI50 up to about 1.1 µM and inactive = higher.
Assays:
Assay in all cases: inhibition of tumour cell growth, NCI panel, 48 h
[1] = test system: KM-20L2
[2] = test system: OVCAR-3
[3] = test system: HT-29
[4] = test system: UO-31
[5] = test system: SW-620
[6] = test system: SK-MEL-2
[7] = test system: HCT-15
[8] = test system: NCI-H23
[9] = test system: NCI-H522
[10] = test system: XF498
[11] = test system: SN12C
[12] = test system: CAKI-1
[13] = test system: SNB-78
[14] = test system: NCI-H226
[15] = test system: IGROV-1
[16] = test system: U-251
[17] = test system: CCRF-CEM
[18] = test system: SK-MEL-5
[19] = test system: HL-60
[20] = test system: SF-295
[21] = test system: NCI-H460
[22] = test system: UACC-62
[23] = test system: OVCAR-8
[24] = test system: SK-OV-3
[25] = test system: LOX IMVI
[26] = test system: RPMI-8226
[27] = test system: HOP-18
[28] = test system: A498
[29] = test system: EKVX
[30] = test system: ACHN
[31] = test system: SF-539
[32] = test system: DLD-1
[33] = test system: SF-268
[34] = test system: HOP-92
[35] = test system: SK-MEL-28
[36] = test system: SNB-75
[37] = test system: M14
[38] = test system: LXFL 529
[39] = test system: DMS-273
[40] = test system: COLO 205
[41] = test system: MOLT-4
[42] = test system: TK-10
[43] = test system: RXF 631
[44] = test system: K562
[45] = test system: Malme-3M
[46] = test system: OVCAR-5
[47] = test system: SNB-19
[48] = test system: A549
[49] = test system: KM12
[50] = test system: M19-MEL
[51] = test system: DMS-114
[52] = test system: OVCAR-4
[53] = test system: SR
[54] = test system: HCC 2998
[55] = test system: UACC-257
[56] = test system: HCT-116
[57] = test system: 786-0
[58] = test system: RXF 393
[59] = test system: HOP-62

## CC1Oc2c(c(O)cc3oc(=O)cc(-c4ccccc4)c23)C(=O)C1C (stereo unspecified)
[1]
  GI50: > 100 µM (inactive)
[2]
  GI50: > 100 µM (inactive)
[3]
  GI50: > 10 µM (inactive)
[4]
  GI50: > 100 µM (inactive)
[5]
  GI50: > 100 µM (inactive)
[6]
  GI50: > 100 µM (inactive)
[7]
  GI50: > 100 µM
[8]
  GI50: > 100 µM (inactive)
[9]
  GI50: > 100 µM (inactive)
[10]
  GI50: > 100 µM (inactive)
[11]
  GI50: > 100 µM (inactive)
[12]
  GI50: > 100 µM (inactive)
[13]
  GI50: > 100 µM (inactive)
[14]
  GI50: > 100 µM (inactive)
[15]
  GI50: > 100 µM (inactive)
[16]
  GI50: > 100 µM (inactive)
[17]
  GI50: > 100 µM (inactive)
[18]
  GI50: > 100 µM (inactive)
[19]
  GI50: > 100 µM (inactive)
[20]
  GI50: > 100 µM (inactive)
[21]
  GI50: > 100 µM (inactive)
[22]
  GI50: > 100 µM (inactive)
[23]
  GI50: > 100 µM (inactive)
[24]
  GI50: > 100 µM (inactive)
[25]
  GI50: > 100 µM (inactive)
[26]
  GI50: > 100 µM (inactive)
[27]
  GI50: > 100 µM (inactive)
[28]
  GI50: > 100 µM (inactive)
[29]
  GI50: > 100 µM (inactive)
[30]
  GI50: > 100 µM (inactive)
[31]
  GI50: > 100 µM (inactive)
[32]
  GI50: > 100 µM (inactive)
[33]
  GI50: > 100 µM (inactive)
[34]
  GI50: > 100 µM (inactive)
[35]
  GI50: > 100 µM (inactive)
[36]
  GI50: > 100 µM (inactive)
[37]
  GI50: > 100 µM (inactive)
[38]
  GI50: > 100 µM (inactive)
[39]
  GI50: > 100 µM (inactive)
[40]
  GI50: > 100 µM (inactive)
[41]
  GI50: > 100 µM (inactive)
[42]
  GI50: > 100 µM (inactive)
[43]
  GI50: > 100 µM (inactive)
[44]
  GI50: > 100 µM (inactive)
[45]
  GI50: > 100 µM (inactive)

## CN/C=C(/c1ccc(OC)cc1)C(O)c1ccc(OC)c(OC)c1 (stereo unspecified)
[46]
  GI50: > 100 µM (inactive)
[1]
  GI50: > 100 µM (inactive)
[2]
  GI50: > 100 µM (inactive)
[3]
  GI50: > 100 µM (inactive)
[47]
  GI50: > 100 µM (inactive)
[4]
  GI50: > 100 µM (inactive)
[48]
  GI50: > 100 µM (inactive)
[5]
  GI50: > 100 µM (inactive)
[6]
  GI50: > 100 µM (inactive)
[49]
  GI50: > 100 µM (inactive)
[50]
  GI50: > 100 µM (inactive)
[7]
  GI50: > 100 µM
[8]
  GI50: > 100 µM (inactive)
[9]
  GI50: > 100 µM (inactive)
[10]
  GI50: > 100 µM (inactive)
[11]
  GI50: > 100 µM (inactive)
[51]
  GI50: > 100 µM (inactive)
[52]
  GI50: > 100 µM (inactive)
[14]
  GI50: > 100 µM (inactive)
[15]
  GI50: > 100 µM (inactive)
[16]
  GI50: > 100 µM (inactive)
[17]
  GI50: > 100 µM (inactive)
[18]
  GI50: > 100 µM (inactive)
[19]
  GI50: > 100 µM (inactive)
[20]
  GI50: > 100 µM (inactive)
[21]
  GI50: > 100 µM (inactive)
[22]
  GI50: > 100 µM (inactive)
[23]
  GI50: > 100 µM (inactive)
[53]
  GI50: > 100 µM (inactive)
[24]
  GI50: > 100 µM (inactive)
[54]
  GI50: > 100 µM (inactive)
[25]
  GI50: > 100 µM (inactive)
[26]
  GI50: > 100 µM (inactive)
[55]
  GI50: > 100 µM (inactive)
[27]
  GI50: > 100 µM (inactive)
[28]
  GI50: > 100 µM (inactive)
[29]
  GI50: > 100 µM (inactive)
[30]
  GI50: > 100 µM (inactive)
[56]
  GI50: > 100 µM (inactive)
[31]
  GI50: > 100 µM (inactive)
[32]
  GI50: > 100 µM (inactive)
[57]
  GI50: > 100 µM (inactive)
[34]
  GI50: > 100 µM (inactive)
[35]
  GI50: > 100 µM (inactive)
[36]
  GI50: 69.8 µM (inactive)
[37]
  GI50: > 100 µM (inactive)
[39]
  GI50: > 100 µM (inactive)
[40]
  GI50: > 100 µM (inactive)
[41]
  GI50: > 100 µM (inactive)
[42]
  GI50: > 100 µM (inactive)
[58]
  GI50: > 100 µM (inactive)
[43]
  GI50: > 100 µM (inactive)
[59]
  GI50: > 100 µM (inactive)
[44]
  GI50: > 100 µM (inactive)
[45]
  GI50: > 100 µM (inactive)

## O=[N+]([O-])c1ccccc1C1SCc2nc3ccccc3n21 (stereo unspecified)
[3]
  GI50: > 100 µM (inactive)
[47]
  GI50: > 100 µM (inactive)
[4]
  GI50: 31.6 µM (inactive)
[48]
  GI50: 52.4 µM (inactive)
[5]
  GI50: > 100 µM (inactive)
[6]
  GI50: > 100 µM (inactive)
[49]
  GI50: > 100 µM (inactive)
[8]
  GI50: 54.1 µM (inactive)
[9]
  GI50: > 100 µM (inactive)
[10]
  GI50: 13.7 µM (inactive)
[11]
  GI50: 83.9 µM (inactive)
[51]
  GI50: 66.2 µM (inactive)
[12]
  GI50: 78.3 µM (inactive)
[52]
  GI50: > 100 µM (inactive)
[15]
  GI50: 36.9 µM (inactive)
[16]
  GI50: 70.6 µM (inactive)
[17]
  GI50: 69.5 µM (inactive)
[18]
  GI50: 18.3 µM (inactive)
[19]
  GI50: 74.6 µM (inactive)
[20]
  GI50: 59.2 µM (inactive)
[21]
  GI50: 78.9 µM (inactive)
[22]
  GI50: 54 µM (inactive)
[23]
  GI50: > 100 µM (inactive)
[53]
  GI50: 85.3 µM (inactive)
[24]
  GI50: > 100 µM (inactive)
[25]
  GI50: > 100 µM (inactive)
[55]
  GI50: 46.7 µM (inactive)
[27]
  GI50: > 100 µM (inactive)
[28]
  GI50: 63 µM (inactive)
[29]
  GI50: 75 µM (inactive)
[30]
  GI50: 92.5 µM (inactive)
[31]
  GI50: > 100 µM (inactive)
[32]
  GI50: 82 µM (inactive)
[57]
  GI50: > 100 µM (inactive)
[33]
  GI50: > 100 µM (inactive)
[34]
  GI50: 48 µM (inactive)
[35]
  GI50: > 100 µM (inactive)
[38]
  GI50: 92.9 µM (inactive)
[39]
  GI50: > 100 µM (inactive)
[41]
  GI50: 44 µM (inactive)
[42]
  GI50: 79.1 µM (inactive)
[58]
  GI50: > 100 µM (inactive)
[43]
  GI50: 93.1 µM (inactive)
[59]
  GI50: 92 µM (inactive)
[44]
  GI50: 45.5 µM (inactive)
[45]
  GI50: 22.1 µM (inactive)

Source: ChEMBL document CHEMBL1201862, “PubChem BioAssay data set” (2004)
